test system: HCV replicon RNA replication in human Huh7 hepatoma cells; assay: HCV replicon assay (activity levels from either or both of HCV replicon assay 1, Huh7/Clone A RT-qPCR, and assay 2, Huh7 ET luc-ubi-neo/ET); format: cell-based, Hepatitis C virus (HCV); conditions: Hepatitis C virus, Huh-7, either or both HCV replicon assays: Huh7/Clone A, 48 hours, 72 hours, Luc activity or RT-PCR, read-out: inhibit HCV replication at IC50 levels or estimated IC50 levels
Source text: The HCV replicon assay is a cell-culture system that mimics in vivo HCV replication and provides a system to study HCV replication in vitro. It was created by transfecting cloned viral RNA derived from a consensus HCV genomic sequence into human Huh7 hepatoma cells that are semi-permissive for viral RNA production (Lohmann V., Korner F., Koch J.-O., Herian U., Theilmann L. and Bartenschlager R. (1999). Replication of subgenomic Hepatitis C virus RNAs in a hepatoma cell line. Science 285, 110-113 and Blight K. J., Kolykhalov A. A. and Rice C. M. (2000). Efficient initiation of HCV RNA Replication in cell culture. Science 290, […]). These transfected cell lines contain a subgenomic HCV RNA genome that includes (1) the HCV 5′NTR fused to 12 amino acids of the capsid coding region, (2) the neomycin phosphotransferase gene (Neo) as a selectable marker, (3) the internal ribosome entry site (IRES) from encephalomyocarditis virus (EMCV) that directs translation of HCV non-structural proteins (variously NS2 or NS3 to NS5B), and (4) the 3′ NTR. Replicon-containing cells autonomously and persistently replicate HCV RNA that can be measured quantitatively by real-time qPCR. Therefore, the replicon system facilitates quantitative assessment of anti-viral activity by monitoring changes in HCV RNA replication in a cell-based assay.
HCV replicon-containing cells (Huh7/Clone A) were routinely maintained in Clone A growth medium (DMEM medium [Invitrogen], supplemented with 10% Fetal Bovine Serum, 1% Non Essential Amino Acids and 1 g/L G418). Test compounds were dissolved in dimethyl sulfoxide (DMSO) to make 200× stock solutions for all doses prior to treatment.
For the HCV replicon assay, Huh7/Clone A cells were trypsinized from culture flasks, seeded in 1 ml of Clone A growth medium without G418 at 4×10^4 cells per well in 24-well plates and incubated at 37° C. in a humidified CO2 (5%) incubator overnight. Following overnight incubation, compound solutions were added into wells in the same volume (5 μl of 200× compound stock per well) to give a final DMSO concentration of 0.5%. Three wells on each plate supplemented with 5 μl of DMSO served as untreated controls. For IC50 determinations, compounds were tested at 7 serial dilutions in triplicates from the starting stock solutions. The plates were incubated at 37° C. for 48 hours. After incubation, cells were harvested, transferred to 96-well plates, and subjected to total RNA extraction using the RNA Isolation Kit (RNeasy 96, Qiagen) according to the protocol described by the manufacture's RNeasy 96 Handbook (Qiagen).
Total RNA eluted in 130 μl of RNase-free dH2O was quantitated by the RiboGreen Assay according to the supplier's protocol (Molecular Probe). Briefly, 5 μl of RNA samples were aliquoted in duplicate to a 96-well black microplate and a 96-well TaqMan Optical plate. RNA samples in the black microplate were mixed with 95 μl of diluted RiboGreen:reagent (1:250 dilution in TE buffer) and sample fluorescence was measured using a fluorescence microplate reader at standard fluorescein wavelengths (excitation ˜480 nm, emission ˜520 nm). Ribosomal RNA (Molecular Probe) was used as standard.
TaqMan quantitative PCR (RT-qPCR) was used to quantitate the amount of HCV replicon RNA in each sample. The RT-qPCR reactions were performed in 25 μl on an ABI PRISM 7900 HT Sequence Detection System (Applied Biosystems). The reaction mixture contained 5 μl of total RNA (10-100 ng), 1× TaqMan Buffer A (Applied Biosystems), 5.5 mM MgCl2, 1.2 mM dNTP mix, 0.625 U of AmpliTaq Gold (Applied Biosystems), 5 U of MMLV reverse transcriptase (Promega), 5 U of rRNasin (Promega), 300 nM each of the forward and reverse primers, and 100 nM TaqMan MGB probe. Primers and probe were designed to hybridize to a portion of the neomycin resistance gene (neo) in the replicon and the sequences are as follows: forward primer 5′-GGCTACCTGCCCATTCGA-3′; reverse primer 5′-CCGGCTTCCATCCGAGTAC-3′; MGB probe 5′-CCACCAAGCGAAACA-3′. […]

| Compound | IC50 |
| --- | --- |
| O=c1c(-c2noc(Cc3ccccc3)n2)cn(Cc2ccc(Cl)cc2)c2cc(N3CCNCC3)c(F)cc12 [Compound 25, 3-(5-benzyl-[1,2,4]oxadiazol-3-yl)-1-(4-chloro-benzyl)-6-fluoro-7-piperazin-1-yl-1H-quinolin-4-one] | < 2 µM |
| O=c1c(-c2noc(Cc3ccccc3)n2)cn(Cc2ccc(Cl)cc2)c2cc(N3CCC(O)CC3)c(F)cc12 [Compound 26, 3-(5-benzyl-[1,2,4]oxadiazol-3-yl)-1-(4-chloro-benzyl)-6-fluoro-7-(4-hydroxy-piperidin-1-yl)-1H-quinolin-4-one] | > 10 µM |
| CC(=O)N1CCN(c2cc3c(cc2F)c(=O)c(-c2noc(Cc4ccccc4)n2)cn3Cc2ccc(Cl)cc2)CC1 [Compound 27, 7-(4-acetyl-piperazin-1-yl)-3-(5-benzyl-[1,2,4]oxadiazol-3-yl)-1-(4-chloro-benzyl)-6-fluoro-1H-quinolin-4-one] | < 2 µM |
| CN1CCN(c2cc3c(cc2F)c(=O)c(-c2noc(Cc4ccc(F)cc4)n2)cn3Cc2ccc(Cl)cc2)CC1 [Compound 28, 1-(4-chloro-benzyl)-6-fluoro-3-[5-(4-fluoro-benzyl)-[1,2,4]oxadiazol-3-yl]-7-(4-methyl-piperazin-1-yl)-1H-quinolin-4-one] | < 2 µM |
| CN1CCN(c2cc3c(cc2F)c(=O)c(-c2noc(C(CC(=O)O)c4ccccc4)n2)cn3Cc2ccc(Cl)cc2)CC1 (stereo not drawn) [Compound 31, 3-{3-[1-(4-chloro-benzyl)-6-fluoro-7-(4-methyl-piperazin-1-yl)-4-oxo-1,4-dihydro-quinolin-3-yl]-[1,2,4]oxadiazol-5-yl}-3-phenyl-propionic acid] | > 10 µM |
| CN1CCN(c2cc3c(cc2F)c(=O)c(-c2noc(Cc4ccc(F)cc4F)n2)cn3Cc2ccc(Cl)cc2)CC1 [Compound 32, 1-(4-chloro-benzyl)-3-[5-(2,4-difluoro-benzyl)-[1,2,4]oxadiazol-3-yl]-6-fluoro-7-(4-methyl-piperazin-1-yl)-1H-quinolin-4-one] | > 10 µM |
| CN1CCN(c2cc3c(cc2F)c(=O)c(-c2noc(Cc4c(F)cccc4F)n2)cn3Cc2ccc(Cl)cc2)CC1 [Compound 33, 1-(4-chloro-benzyl)-3-[5-(2,6-difluoro-benzyl)-[1,2,4]oxadiazol-3-yl]-6-fluoro-7-(4-methyl-piperazin-1-yl)-1H-quinolin-4-one] | < 10 µM |
| CN1CCN(c2cc3c(cc2F)c(=O)c(-c2noc(Cc4ccc(F)cc4)n2)cn3Cc2ccc(Cl)cc2F)CC1 [Compound 34, 1-(4-chloro-2-fluoro-benzyl)-6-fluoro-3-[5-(4-fluoro-benzyl)-[1,2,4]oxadiazol-3-yl]-7-(4-methyl-piperazin-1-yl)-1H-quinolin-4-one] | < 2 µM |
| CN1CCN(c2cc3c(cc2F)c(=O)c(-c2noc(Cc4ccccc4)n2)cn3Cc2ccc(C(F)(F)F)cc2)CC1 [Compound 36, 3-(5-benzyl-[1,2,4]oxadiazol-3-yl)-6-fluoro-7-(4-methyl-piperazin-1-yl)-1-(4-trifluoromethyl-benzyl)-1H-quinolin-4-one] | < 2 µM |
| CN1CCN(c2cc3c(cc2F)c(=O)c(-c2noc(Cc4ccc(F)cc4)n2)cn3Cc2ccc(C(F)(F)F)cc2)CC1 [Compound 37, 6-fluoro-3-[5-(4-fluoro-benzyl)-[1,2,4]oxadiazol-3-yl]-7-(4-methyl-piperazin-1-yl)-1-(4-trifluoromethyl-benzyl)-1H-quinolin-4-one] | < 2 µM |
| O=c1c(-c2noc(Cc3ccccc3)n2)cn(Cc2ccc(C(F)(F)F)cc2F)c2cc(N3CCCNCC3)c(F)cc12 [Compound 38, 3-(5-benzyl-[1,2,4]oxadiazol-3-yl)-7-[1,4]diazepan-1-yl-6-fluoro-1-(2-fluoro-4-trifluoromethyl-benzyl)-1H-quinolin-4-one] | < 0.5 µM |
| CCCCCc1nc(-c2cn(Cc3ccc(C(F)(F)F)cc3F)c3cc(N4CCN(C)CC4)c(F)cc3c2=O)no1 [Compound 40, 6-fluoro-1-(2-fluoro-4-trifluoromethyl-benzyl)-7-(4-methyl-piperazin-1-yl)-3-(5-pentyl-[1,2,4]oxadiazol-3-yl)-1H-quinolin-4-one] | < 2 µM |
| CN1CCN(c2cc3c(cc2F)c(=O)c(-c2noc(Cc4ccccc4)n2)cn3Cc2c(F)cccc2Cl)CC1 [Compound 41, 3-(5-benzyl-[1,2,4]oxadiazol-3-yl)-1-(2-chloro-6-fluoro-benzyl)-6-fluoro-7-(4-methyl-piperazin-1-yl)-1H-quinolin-4-one] | > 10 µM |
| CN1CCN(c2cc3c(cc2F)c(=O)c(-c2noc(Cc4ccc(F)cc4)n2)cn3Cc2c(F)cccc2Cl)CC1 [Compound 42, 1-(2-chloro-6-fluoro-benzyl)-6-fluoro-3-[5-(4-fluoro-benzyl)-[1,2,4]oxadiazol-3-yl]-7-(4-methyl-piperazin-1-yl)-1H-quinolin-4-one] | < 10 µM |
| O=C(O)c1ccc2c(c1)c(=O)c(-c1noc(Cc3ccccc3)n1)cn2Cc1ccc(C(F)(F)F)cc1F [Compound 43, 3-(5-benzyl-[1,2,4]oxadiazol-3-yl)-1-(2-fluoro-4-trifluoromethyl-benzyl)-4-oxo-1,4-dihydro-quinoline-6-carboxylic acid] | > 10 µM |
| CN1CCN(c2cc3c(cc2F)c(=O)c(-c2noc(Cc4ccc(F)cc4)n2)cn3Cc2ccc(F)cc2F)CC1 [Compound 44, 1-(2,4-difluoro-benzyl)-6-fluoro-3-[5-(4-fluoro-benzyl)-[1,2,4]oxadiazol-3-yl]-7-(4-methyl-piperazin-1-yl)-1H-quinolin-4-one] | < 2 µM |
| CN1CCN(c2cc3c(cc2F)c(=O)c(-c2noc(Cc4ccccc4)n2)cn3Cc2ccccc2F)CC1 [Compound 45, 3-(5-benzyl-[1,2,4]oxadiazol-3-yl)-6-fluoro-1-(2-fluoro-benzyl)-7-(4-methyl-piperazin-1-yl)-1H-quinolin-4-one] | < 10 µM |
| CN1CCN(c2cc3c(cc2F)c(=O)c(-c2noc(Cc4cc(F)cc(F)c4)n2)cn3Cc2ccc(Cl)cc2)CC1 [Compound 46, 1-(4-chloro-benzyl)-3-[5-(3,5-difluoro-benzyl)-[1,2,4]oxadiazol-3-yl]-6-fluoro-7-(4-methyl-piperazin-1-yl)-1H-quinolin-4-one] | < 10 µM |
| CN1CCN(c2cc3c(cc2F)c(=O)c(-c2noc(Cc4ccc(F)cc4)n2)cn3Cc2ccccc2F)CC1 [Compound 47, 6-fluoro-3-[5-(4-fluoro-benzyl)-[1,2,4]oxadiazol-3-yl]-1-(2-fluoro-benzyl)-7-(4-methyl-piperazin-1-yl)-1H-quinolin-4-one] | < 10 µM |
| CN1CCN(c2cc3c(cc2F)c(=O)c(-c2noc(Cc4ccccc4)n2)cn3Cc2c(F)cccc2F)CC1 [Compound 48, 3-(5-benzyl-[1,2,4]oxadiazol-3-yl)-1-(2,6-difluoro-benzyl)-6-fluoro-7-(4-methyl-piperazin-1-yl)-1H-quinolin-4-one] | < 10 µM |

same assay, conditions: either or both HCV replicon assays: Huh7/Clone A, 48 hours, 72 hours, Luc activity or RT-PCR, read-out: inhibit HCV replication at IC50 levels or estimated IC50 levels

| Compound | IC50 |
| --- | --- |
| CN1CCN(c2cc3c(cc2F)c(=O)c(-c2noc(Cc4ccccc4)n2)cn3Cc2ccc(C(F)(F)F)cc2F)CC1 [Compound 35, 3-(5-benzyl-[1,2,4]oxadiazol-3-yl)-6-fluoro-1-(2-fluoro-4-trifluoromethyl-benzyl)-7-(4-methyl-piperazin-1-yl)-1H-quinolin-4-one] | < 2 µM |
